Measured values taken from US10266525B2, “Processes for preparing 2-(6-(1H-indol-4-yl)-1H-indazol-4-yl)-5-((4-isopropylpiperazin-1-yl)methyl)oxazole” (GlaxoSmithKline Intellectual Property Development Limited, priority 2015, dated 2019).

Legend:
hygroscopicity = format: physicochemical
[1] = solubility in simulated lung fluid; format: physicochemical

**Q.** Which hygroscopicity (hygroscopicity) does the source give for CC(C)N1CCN(Cc2cnc(-c3cc(-c4cccc5[nH]ccc45)cc4[nH]ncc34)o2)CC1.O=C(O)c1ccccc1 [benzoate salt of Compound A, 2-(6-(1H-Indol-4-yl)-1H-indazol-4-yl)-5-((4-isopropylpiperazin-1-yl)methyl)oxazole benzoate] here?
**A.** suitable

**Q.** And the “solubility in simulated lung fluid” value [1]?
**A.** suitable
